The conditions of assay [1]: recent large prospective trial; cited from earlier work.
Assay [2] has as its target T1, PPARδ (Homo sapiens, UniProt Q03181).
T1 sequence (Q03181 1-441): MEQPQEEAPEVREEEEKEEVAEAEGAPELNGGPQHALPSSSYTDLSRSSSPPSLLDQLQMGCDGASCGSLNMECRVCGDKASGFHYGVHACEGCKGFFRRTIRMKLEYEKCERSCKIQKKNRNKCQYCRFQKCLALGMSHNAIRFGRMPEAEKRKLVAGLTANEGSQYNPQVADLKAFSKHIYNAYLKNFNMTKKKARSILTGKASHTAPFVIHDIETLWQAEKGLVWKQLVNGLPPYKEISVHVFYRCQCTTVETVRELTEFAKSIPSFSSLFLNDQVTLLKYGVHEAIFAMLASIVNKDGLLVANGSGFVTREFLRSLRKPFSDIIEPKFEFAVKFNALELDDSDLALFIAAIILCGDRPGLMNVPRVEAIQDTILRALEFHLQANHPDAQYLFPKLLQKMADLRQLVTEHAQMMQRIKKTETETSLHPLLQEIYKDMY
Particulars: cited from earlier work.

In the next assay the target is T2, murine PPARα (Mus musculus, UniProt P23204).
T2 sequence (P23204 1-468): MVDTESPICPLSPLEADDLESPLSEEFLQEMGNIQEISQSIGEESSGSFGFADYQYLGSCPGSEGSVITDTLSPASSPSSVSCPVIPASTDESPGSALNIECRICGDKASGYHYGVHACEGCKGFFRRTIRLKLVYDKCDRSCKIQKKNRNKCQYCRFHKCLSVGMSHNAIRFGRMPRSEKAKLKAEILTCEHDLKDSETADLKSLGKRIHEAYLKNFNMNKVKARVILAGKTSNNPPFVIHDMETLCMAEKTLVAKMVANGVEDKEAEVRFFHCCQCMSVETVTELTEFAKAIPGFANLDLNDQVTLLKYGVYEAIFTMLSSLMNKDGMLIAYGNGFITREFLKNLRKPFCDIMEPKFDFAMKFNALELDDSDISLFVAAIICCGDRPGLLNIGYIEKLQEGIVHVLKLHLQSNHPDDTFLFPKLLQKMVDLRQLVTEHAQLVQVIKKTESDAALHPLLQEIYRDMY
Particulars: cited from earlier work.

Assay [3] addresses T3, PPARδ (Homo sapiens, UniProt Q03181).
T3 construct: P1057. pET BAM6 PPARD G165-Y441-X; made in house; host or cells: E. coli BL21(DE3)RIL
T3 sequence (Q03181 with tags, fused parts or gaps): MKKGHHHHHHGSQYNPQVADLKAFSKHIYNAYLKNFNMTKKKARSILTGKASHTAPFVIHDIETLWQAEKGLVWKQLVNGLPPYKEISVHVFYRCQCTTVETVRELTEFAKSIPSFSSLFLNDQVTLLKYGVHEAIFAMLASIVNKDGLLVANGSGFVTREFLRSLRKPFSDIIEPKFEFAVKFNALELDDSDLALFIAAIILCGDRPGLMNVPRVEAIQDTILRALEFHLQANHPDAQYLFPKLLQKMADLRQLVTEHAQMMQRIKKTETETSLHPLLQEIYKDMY
The assay can be described thus: homogenous Alpha screen assay, agonist mode, coactivator Biotin-PGC-1 peptide recruitment. The following applies: His-tagged PPAR-LBD 10 nM, 25 nM biotin-PGC-1 peptide, 1 hour room temperature; read-out: EC50 with respect to PPARδ. It is filed as biochemical. The source says:
(§1) Plasmids encoding the Ligand-binding domains (LBDs) of PPARα, PPARγ, and PPARδ were engineered using common polymerase chain reaction (PCR) methods (pGal4-PPARα-LBD, pGal4-PPARγ-LBD, pGal4-PPARδ-LBD). The relevant DNA sequences and encoded protein sequences used in the assay are shown for each (see below). Complementary DNA cloned from various human tissues was purchased from Invitrogen, and these were used as substrates in the PCR reactions. Specific custom synthetic oligonucleotide primers (Invitrogen, see below) were designed to initiate the PCR product, and also to provide the appropriate restriction enzyme cleavage sites for ligation with the plasmids.
For PPARδ protein expression, single colonies were grown for 4 hrs at 37° C. in 200 mL LB media. 16×1 L of fresh TB media in 2.8 L flasks were inoculated with 10 mL of starter culture and grown with constant shaking at 37° C. […] Cells were harvested by centrifugation and pellets frozen at −80° C. until ready for lysis/purification. […]
(§2) The homogenous Alpha screen assay was used in the agonist mode to determine the ligand dependent interaction of the PPARs (α,δ,γ) with the coactivator Biotin-PGC- 1 peptide (biotin-AHX-[…]-CONH2 (SEQ ID NO: 13), supplied by Wyeth). […] The samples were incubated for 1 hour in the dark at room temperature before taking the reading in the Fusion alpha or Alpha Quest reader. […]

In another assay the target is T4, PPARγ (Homo sapiens, UniProt P37231).
T4 sequence (P37231 with tags, fused parts or gaps): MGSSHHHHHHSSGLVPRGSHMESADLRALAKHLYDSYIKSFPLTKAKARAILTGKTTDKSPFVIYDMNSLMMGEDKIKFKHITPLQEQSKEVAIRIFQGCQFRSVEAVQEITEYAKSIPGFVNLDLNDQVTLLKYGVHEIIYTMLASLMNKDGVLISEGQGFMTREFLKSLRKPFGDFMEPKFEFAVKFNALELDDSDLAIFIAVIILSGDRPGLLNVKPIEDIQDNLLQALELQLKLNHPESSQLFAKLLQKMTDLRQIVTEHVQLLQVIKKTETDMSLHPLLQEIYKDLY
The assay is described as above. Type of assay: biochemical. Particulars: His-tagged PPAR-LBD 20 nM, 25 nM biotin-PGC-1 peptide, 1 hour room temperature; read-out: EC50 with respect to PPARγ.
From the text: as §1
For protein expression, plasmids containing genes of interest were transformed into E. coli strain BL21(DE3)RIL (Invitrogen) and transformants selected for growth on LB agar plates containing appropriate antibiotics. Single colonies were grown for 4 hrs at 37° C. in 200 ml LB media. […]. […]
as §2

The structures appear in SMILES notation. pEC50: −log10 of the molar value.

As for `Cc1ccc(C)c(OCCCC(C)(C)C(=O)O)c1` [gemfibrozil], the “reduction in cardiovascular events or death” value in assay [1] is reported as 22%.

As for `CCCc1c(OCCCOc2ccc(OCC(=O)O)cc2)ccc(C(C)=O)c1O` [Compound L-165041], the “agonist selectivity for PPARδ over PPARγ” value at PPARδ [2] is “approximately 30 fold”. Besides, on murine PPARα, the “activity on murine PPARα” value is “inactive”.

On to `COc1ccc2c(c1)c(SCC(=O)O)cn2S(=O)(=O)c1ccc(Cl)c(Cl)c1` [Compound 27, [1-(3,4-dichloro-benzenesulfonyl)-5-methoxy-1H-indol-3-ylsulfanyl]-acetic acid], for which the negative logarithm of the EC50 (pEC50) at PPARδ [3] and at PPARγ was more than 6.00 in each case.

The values above are taken from patent US7531568B2, “PPAR active compounds” (Plexxikon, Inc., priority 2004, dated 2009).
